Experimental data published in PubChem BioAssay AID179 (DTP/NCI, 2004).
Activity calls are given as the source filed them.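 The calls were made as follows: active = compounds giving half or more protection of infected cells from virus-caused growth loss, again on retest; inactive = the rest.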 Where a SMILES comes first, the peptide text is derived from it. [ ]: non-standard residue; d: D form. Abu = CC[CH](N)C(=O)O

Tested on: CEM cells HIV-1 protection, formazan growth assay
Assay: NCI AIDS Antiviral Assay
Details: for IC50: measured here: growth of uninfected CEM cells
Outline: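 Steps: treat uninfected and HIV-1-infected human CEM cells at five drug levels; quantify growth by soluble formazan; retest any compound reaching 50% protection; classify actives from the retest.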

| Structure (SMILES) | EC50 [µM] | IC50 [µM] | outcome |
| --- | --- | --- | --- |
| COC(=O)C(=O)C(C(=O)OC)C(=O)C(=O)Nc1ccccc1C(N)=O (stereo unspecified) | > 74.1 | > 74.1 |  |
| Cc1[nH]c2ccccc2c1C1CC(=O)NC1=O (stereo unspecified) |  |  | inactive |
| CCOC(=O)C(Cc1c(-c2[nH]c3ccccc3c2CC(NC(=O)CNC(C)=O)C(=O)OCC)[nH]c2ccccc12)NC(=O)CNC(C)=O (stereo unspecified) | > 100 | 21.9 |  |
| Cc1cc(Br)cc(C)c1NC(=O)C(=O)Nn1c(=S)[nH]c2ccccc2c1=O | > 209 | > 209 |  |
| COc1ccc(CN2CCCN(Cc3ccc(OC)cc3)C2c2ccccc2O)cc1 | > 200 | 50.1 |  |
| CN1CC(C(=O)NC2(C)OC3(O)C4CCCN4C(=O)C(Cc4ccccc4)N3C2=O)C=C2c3cccc4[nH]cc(c34)CC21 (stereo unspecified) | > 61.7 | 28.8 |  |
| Cc1ccc(C(=O)c2cccc(C)c2C(=O)O)c(C)c1 | > 200 | > 200 |  |
| Cn1c(=O)n2n(c1=O)C1C=CC2C2C=C(c3ccccc3)C21 (stereo unspecified) |  |  | inactive |
| S=C=Nc1ccc(CSc2nc3ccccc3[nH]2)cc1 |  |  | inactive |
| COc1cc(C2SCC(=O)N2NC(=O)c2ccc(NC(C)=O)cc2)cc(OC)c1OC (stereo unspecified) | > 58.9 | > 58.9 |  |
| O=C1Cc2csc3nc(=O)cc(n23)N1 | > 120 | > 120 |  |
| Clc1cc(C(c2cc(Cl)sc2Cl)c2cc(Cl)sc2Cl)c(Cl)s1 | > 50.1 | > 50.1 |  |
| O=C1NN2CCN=C2c2cccnc21 | > 1320 | > 1320 |  |
| S=C(NCc1ccccc1-c1ccccc1)Nc1ccc(Br)cn1 | > 2 | 0.38 |  |
| NCC[PH+](c1ccccc1)c1ccccc1.NCC[PH+](c1ccccc1)c1ccccc1.[Cl-].[Pt+4] | > 200 | 72.4 |  |
| c1cc2sc3ccc(OCCCN4CCCCC4)cc3c2cc1OCCCN1CCCCC1 | > 93.3 | 1.58 |  |
| CCOC(=O)c1c(C)nc2c3ccccc3c(C#N)c(C)n12 | > 100 | > 100 |  |
| O=C(O)Cc1ccc(-n2nnc3c(=O)[nH][nH]c(=O)c32)cc1 | > 200 | > 200 |  |
| CC1(C)CC(C)(Br)C(Br)C(=O)C1C(O)(C(F)(F)F)C(F)(F)F (stereo unspecified) | > 200 | 33.1 |  |
| CCCCCCCCC(C)CCCCCCCCC(=O)O (stereo unspecified) |  |  | inactive |
| CCOP(=O)(OCC)C1(O)CC(n2cc(C)c(=O)[nH]c2=O)OC1CO (stereo unspecified) | > 200 | > 200 |  |
| Nc1nc2c(N)cc(C(F)(F)F)cc2nc1-c1ccccc1 | > 17 | > 17 |  |
| N#CCCN(C1=NN(C(=O)CC(=O)Nc2ccccc2Cl)C(c2ccccc2)C1)c1ccc(Cl)cc1 (stereo unspecified) | > 3.89 | > 3.89 |  |
| CC(C)n1c(=O)n(-c2ccccc2)n(C(C)(C)C)c1=O | > 200 | > 100 |  |

| Structure (SMILES) | EC50 [µM] | IC50 [µM] | outcome |
| --- | --- | --- | --- |
| Cc1nc2c(nc1C)C(=O)C(Cl)=C(N)C2=O |  |  | inactive |
| Cc1ccc(Nc2nc3nc[nH]c3c(=O)[nH]2)cc1CO | > 200 | > 200 |  |
| N#C/C(=C(/C#N)c1ccccc1)c1ccccc1 | > 200 | > 200 |  |
| CCCC(=O)OC(C(Cl)(Cl)Cl)P(=O)(OC)OC (stereo unspecified) | > 200 | 30.9 |  |
| CC(C)/C(Cl)=N\OC(=O)Nc1ccc(F)cc1F | > 200 | 7.24 |  |
| COc1c(C)cc(Cc2cc(C)c(OC)c(Br)c2)cc1Br | > 200 | 91.2 |  |
| CN1C(=O)c2cccc3cc([N+](=O)[O-])cc(c23)C1=O | > 53.7 | 10.2 |  |
| COc1ccc(C2(OC)Oc3ccccc3-c3nc4ccccc4nc32)cc1 (stereo unspecified) | > 69.2 | > 69.2 |  |
| C/C=C1/C(=Cc2[nH]c(C=c3[nH]/c(=C/C4=NC(=O)C(CC)=C4C)c(C)c3CCC(=O)O)c(CCC(=O)O)c2C)NC(=O)C1C (stereo unspecified) | > 28.8 | > 28.8 |  |
| S=c1[nH]c(=S)c2cc(Sc3ccc4[nH]c(=S)[nH]c(=S)c4c3)ccc2[nH]1 | > 200 | > 200 |  |
| O=S(=O)(SSS(=O)(=O)c1ccccc1)c1ccccc1 | > 75.9 | > 75.9 |  |
| COC(=O)c1ncn(C(C(=O)OC)C(=O)OC)c1O | > 200 | > 200 |  |
| Cc1cc(Oc2cnc(=O)[nH]c2)cs1 | > 200 | > 200 |  |
| CSc1nc(N)nc(N)n1 | > 200 | > 200 |  |
| S=C(N/N=C/c1ccccn1)Nc1ccc(Cl)cc1 | > 2 | 0.0891 |  |
| COC(=O)c1cc(C(=CC(=O)O)c2cc(Cl)c(OC)c(C(=O)OC)c2)cc(Cl)c1OC | > 200 | 95.5 |  |
| Cc1noc(NC2=CC(=O)C(=O)c3ccccc32)c1C | > 200 | 3.98 |  |
| CCC(N)C(=O)NC(C(=O)NC(CC(C)C)C(=O)NC(CC(N)=O)C(=O)NC(Cc1ccccc1)C(=O)O)C(C)O (stereo unspecified) (H-[Abu]TLNF-OH; configuration not given here) |  |  | inactive |
| CN(C)CCNc1ccc([N+](=O)[O-])c2nc3ccccc3c(N)c12 | > 200 | 1.95 |  |
| O=C(O)CN(c1ccccc1Cl)S(=O)(=O)c1ccccc1 |  |  | inactive |
| CCOC1=C(c2ccccc2)N2CCCCC2O1 (stereo unspecified) | > 200 | 2.57 |  |
| O=S(=O)(C1CCCCC1)N1N=NC2CCCCC21 (stereo unspecified) | > 200 | > 200 |  |
| COc1ccc2c(c1OC)C[N+]1(C)CCc3cc4c(cc3C1C2)OCO4 (stereo unspecified) | > 158 | > 158 |  |
| COc1c2ccoc2nc2c(OC)c(OCC(O)C(C)(C)O)ccc12 (stereo unspecified) | > 513 | > 513 |  |

| Structure (SMILES) | EC50 [µM] | IC50 [µM] | outcome |
| --- | --- | --- | --- |
| COc1ccc(NC(=O)/C(=C/n2c(=S)[nH]c3cc(C)ccc32)C(C)=O)cc1 | > 200 | > 200 |  |
| CC(C#N)Nc1ccc(Oc2ccc(C(C)(C)c3ccc(Oc4ccc(NC(C)C#N)cc4)cc3)cc2)cc1 (stereo unspecified) | > 200 | 13.5 |  |
| CCOP(=O)(OCC)C(=C1C=C(C(C)(C)C)C(=O)C(C(C)(C)C)=C1)P(=O)(OCC)OCC | > 200 | 0.933 |  |
| CC(C)(C)NC(=O)C12C3C4C1C1C2C3C41C(=O)NC(C)(C)C (stereo unspecified) |  |  | inactive |
| c1ccc2c(c1)SC1Sc3ccccc3[S+]21 (stereo unspecified) | > 200 | 11.5 |  |
| CNC(=S)SC1=NS(=O)(=O)c2ccccc2N1 | > 234 | 174 |  |
| CCOC(=O)/C=C/CC(C)n1cc(C)c(=O)[nH]c1=O (stereo unspecified) |  |  | inactive |
| COC(=O)c1ccccc1CC1Cc2ccc3c(c2C1=O)CCCC3 (stereo unspecified) | > 200 | > 200 |  |
| CCC1(CC)C(=O)NN(C(=O)c2ccccc2)C1=O | > 200 | > 200 |  |
| COC(=O)C1=COC2OC3C(C(C)O)C(=O)OC34C=CC1C24 (stereo unspecified) | > 589 | 63.1 |  |
| Nc1ncnc2c1S(=O)(=O)NCN2 | > 178 | > 178 |  |
| CC(=Nc1c2ccccc2nc2ccccc12)N(C)C | > 200 | 28.2 |  |
| CCOC(=N)COC(=O)c1ccccc1 | > 200 | > 200 |  |
| CCOC(=O)/C=C/c1ccc2c(c1)OC(CO)[C@H](c1ccc(O)c(OC)c1)O2 (stereo partly specified) | > 339 | 77.6 |  |
| Cc1ccc(S(=O)(=O)N2CC2CCCCC=O)cc1 (stereo unspecified) | > 200 | 31.6 |  |
| c1ccc(-c2nnc3sc4ccccc4n23)cc1 | > 200 | > 200 |  |
| Cc1cc(C(=O)CCCCOc2ccc(C3=NCCO3)cc2)c(C)n1C |  |  | inactive |
| CN(C)C=Nc1nncc2n[nH]nc12 | > 200 | > 200 |  |
| Cc1cccc(-c2nc3sc(-c4cccc(C)n4)nc3s2)n1 |  |  | inactive |
| CC(=O)Nc1ccc2c(C)c3c4ccccc4n(C)c3nc2n1 | > 200 | 5.25 |  |
| ClC1(Cl)C2CCOC21n1cnc2ccccc21 (stereo unspecified) | > 200 | 102 |  |
| Cc1cn(C2CC(CCCO)C(CO)O2)c(=O)[nH]c1=O (stereo unspecified) | > 871 | > 871 |  |
| CC(Oc1ccc2c(-c3ccc(Cl)cc3)cc(=O)oc2c1)C(=O)O (stereo unspecified) |  |  | inactive |
| CCC1(Br)C(=O)NC(=O)NC1=O | 42.7 | 115 |  |

| Structure (SMILES) | EC50 [µM] | IC50 [µM] | outcome |
| --- | --- | --- | --- |
| CCc1nnc(CC)n1NCCCC(=O)O | > 200 | > 200 |  |
| CC(C)OC(=O)C1(C(C)C)CCc2ccc(C(=O)CCC(=O)O)cc21 (stereo unspecified) | > 200 | 178 |  |
| CNNc1ncnc2c1cnn2C | > 794 | > 794 |  |
| C=C1C(C)C2C(Cc3ccccc3)NC(=O)C23OC(=O)/C=C\CC(=O)CCC(C)C/C=C/C3C1O (stereo unspecified) | > 38.9 | 1.45 |  |
| COc1cc2c(c(OC)c1OC)C1CCCCC1SCC2=O (stereo unspecified) | > 155 | > 155 |  |
| COc1cccc(C2=NC(C(C)C)CO2)c1OC (stereo unspecified) | > 525 | 316 |  |
| CCCCCCCCCCCCCCCCCCNC(=S)/N=C/c1c(O)cc(C)oc1=O | > 200 | 32.4 |  |
| O=C(O)C(=Cc1ccc(-c2ccccc2)cc1)C(=O)O | > 251 | 15.5 |  |
| CN1C(=O)CC2C(=O)N(Cc3ccccc3)C(=O)C2C1=O (stereo unspecified) | > 347 | > 347 |  |
| Cc1cc(C(=O)CSC(=S)SC(C)(C)C)ccc1Cl | > 30.2 | > 30.2 |  |
| CCc1cccc(C(C)C)c1C1C(=O)C(=O)N(c2nc3ccccc3s2)C(=O)C1=O |  |  | inactive |
| Cc1cc2oc3ccccc3c(=O)c2c(C)c1Cl | > 28.2 | > 28.2 |  |
| CC1=NNB(O)c2sccc21 | > 562 | 145 |  |
| COC(=O)c1c2cccccc-2c(Cc2c3cccccc-3c(C(=O)OC)c2O)c1O | > 200 | > 200 |  |
| N[C@@H](CSSc1ccccc1C(=O)O)C(=O)O | > 200 | > 200 |  |
| COc1ccccc1N1C(=O)C2c3[nH]c4ccccc4c3C3CCC(C(C)(C)C)CC3C2C1=O (stereo unspecified) | > 1.2 | > 1.2 |  |
| NCCC=C(c1cc(Cl)c(O)c(C(=O)O)c1)c1cc(Cl)c(O)c(C(=O)O)c1 | 151 | > 200 |  |
| CC(C)CCCC(C)C1CCC2C3CCC4CC5(CCC4(C)C3CCC12C)NCCCS5 (stereo unspecified) | > 1.58 | > 1.58 |  |
| CN(C)CCNC(=O)c1cccc2c(Nc3ccc(S(=O)(=O)N=C(N)N)cc3)c3ccccc3nc12 |  |  | inactive |
| Cc1ncc([N+](=O)[O-])n1CC(O)CCl (stereo unspecified) | > 200 | > 200 |  |
| Cc1ccc(Cc2n[nH]c(=O)n2-c2ccccc2)cc1 |  |  | inactive |
